Test results: publication PMC6054424, “Expression and purification of a functional heteromeric GABAA receptor for structural studies” (PLoS ONE, 2018)

B1: GluClα-EGFP (α subunit of the glutamate-gated chloride channel from C. elegans, EGFP in the M3/M4 loop) (receptor, UniProt G5EBR3 21-461, looked up)
chain: QQARTKSQDIFEDDNDNGTTTLESLARLTSPIHIPIEQPQTSDSKILAHLFTSGYDFRVRPPTDNGGPVVVSVNMLLRTISKIDVVNMEYSAQLTLRESWIDKRLSYGVKGDGQPDFVILTVGHQIWMPDTFFPNEKQAYKHTIDKPNVLIRIHNDGTVLYSVRISLVLSCPMYLQYYPMDVQQCSIDLASYAYTTKDIEYLWKEHSPLQLKVGLSSSLPSFQLTNTSTTYCTSVTNTGIYSCLRTTIQLKREFSFYLLQLYIPSCMLVIVSWVSFWFDRTAIPARVTLGVTTLLTMTAQSAGINSQLPPVSYIKAIDVWIGACMTFIFCALLEFALVNHIANKQGVERKARTEREKAEIPLLQNLHNDVPTKVFNQEEKVRTVPLNRRQMNSFLNLLETKTEWNDISKRVDLISRALFPVLFFVFNILYWSRFGQQNVLF
notes: glutamate-gated chloride channel α subunit (GluClα), C. elegans; source: Xenopus oocytes injected with synthetic mRNA, in C12M-solubilised oocytes; not shown: EGFP, internal (M3/M4 loop)

How the values were obtained:
[1] = target: T1, GABAA receptor α1/β1 (α1 subunit) (Rattus norvegicus, UniProt P15431+P62813, P15431:DEL334-439/P15431:INS334GT/P62813:DEL341-408/P62813:INS341T); experiment: radioligand saturation binding by scintillation proximity assay on purified receptor in L-MNG
T1 construct: gene Gabra1; purified α1/β1 receptor with M3/M4 loop truncations (α1-LT: Y341-P408 replaced with Thr; β1-LT: K334-K439 replaced with Gly-Thr), C-terminal His8 tag; with GABAA receptor β1 subunit (Gabrb1, P15431)

[2] = target: the molecule itself; experiment: SEC; fluorescence detection SEC (FSEC) of 8-12 oocytes solubilised with 40 mM C12M; Superose6 10/300 GL in TBS pH 8.0, 1 mM C12M, 1 mM EDTA; GFP fluorescence of the tagged subunit followed; ferritin and EGFP as standards

T1 sequence (P62813 with tags, fused parts or gaps DEL341-408/INS341T): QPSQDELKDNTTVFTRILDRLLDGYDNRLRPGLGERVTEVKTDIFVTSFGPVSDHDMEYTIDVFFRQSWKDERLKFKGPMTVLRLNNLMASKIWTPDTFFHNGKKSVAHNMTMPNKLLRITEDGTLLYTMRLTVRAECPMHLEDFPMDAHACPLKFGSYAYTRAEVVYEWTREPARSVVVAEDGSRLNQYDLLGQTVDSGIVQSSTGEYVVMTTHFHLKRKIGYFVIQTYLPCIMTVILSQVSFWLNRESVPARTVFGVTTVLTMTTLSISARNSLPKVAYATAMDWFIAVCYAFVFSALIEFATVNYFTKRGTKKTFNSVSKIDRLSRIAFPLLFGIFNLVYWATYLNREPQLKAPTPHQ
T1 sequence (P15431 with tags, fused parts or gaps DEL334-439/INS334GT): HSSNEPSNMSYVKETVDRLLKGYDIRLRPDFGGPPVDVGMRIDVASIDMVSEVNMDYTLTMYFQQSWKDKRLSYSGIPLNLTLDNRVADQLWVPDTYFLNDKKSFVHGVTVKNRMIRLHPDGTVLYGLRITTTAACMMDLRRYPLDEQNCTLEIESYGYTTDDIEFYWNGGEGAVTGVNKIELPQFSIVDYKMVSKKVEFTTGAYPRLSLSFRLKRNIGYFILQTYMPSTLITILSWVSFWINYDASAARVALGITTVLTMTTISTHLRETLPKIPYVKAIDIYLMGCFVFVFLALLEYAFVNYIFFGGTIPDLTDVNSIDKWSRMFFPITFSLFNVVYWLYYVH

Molecule	Kd [1] [nM]	stoichiometry N [2]
NCc1cc(=O)[nH]o1 [muscimol]	24 ± 1.1	–
B1	–	5
